Columns and labels:
[1] = test system: Spontaneously hypertensive rats (SHR); test: Acute efficacy in spontaneously hypertensive rats (SHR): telemetry blood pressure lowering after a single oral dose; assay type: in vivo, rat
Text: Acute Efficacy in Spontaneously Hypertensive Rats (SHR)
Spontaneously hypertensive rats (SHR, male, Charles River) were implanted with DSI TA11PA-C40 telemetry device (Data Sciences, Inc., St. Paul, Minn.) under isoflurane or ketamine/metomidine anesthesia. The telemetry unit catheter was inserted into the descending aorta via the femoral artery and the telemetry device was implanted subcutaneously in the left flank area. Animals were allowed to recover from surgery for 14 days before the start of any studies. Blood pressure, heart rate, and activity signals from conscious, freely moving rats were recorded continuously for 30 seconds every 10 minutes. On the day prior to administration of compound, a single oral dose of vehicle (10% transcutol/20% Cremophor/70% water) was administered to all animals to establish baseline control data. The blood pressure lowering efficacy of compound (PO) or vehicle was evaluated following a single oral gavage. Data were collected as hourly averages, and changes in blood pressure were calculated by subtracting control baseline data on an hourly basis. Animals were maintained on normal diet with a 12 hour light-dark cycle.
Maximum peak decreases of systolic blood pressure (SBP) in SHR at a particular P.O. dose (mpk milligrams per kilogram) for the following representative compounds are provided. Category A=SBP in SHRs<20 mmHg; Category B=SBP in SHRs 20-40 mmHg; Category C=SBP in SHRs>40 mmHg

sGC α1/β1 heterodimer = target: T1, sGC α1/β1 heterodimer (Homo sapiens, UniProt Q02108+Q02153); test: Cell-based sGC functional assay (CASA assay): cGMP generation in CHO-K1/sGC cells, HTRF detection; details: for Emax: CHO-K1, percent activation relative to standard Compound A in CHO-K1/sGC cells, read-out: % Act.; for EC50: inflection point (IP) of cGMP generation in CHO-K1/sGC cells, 4P fit, activity expressed as percentage of Compound A
T1 construct: expressed in transfected cells; host or cells: CHO-K1 (clone #7, CHO-K1/sGC)
T1 sequence (Q02108 1-690): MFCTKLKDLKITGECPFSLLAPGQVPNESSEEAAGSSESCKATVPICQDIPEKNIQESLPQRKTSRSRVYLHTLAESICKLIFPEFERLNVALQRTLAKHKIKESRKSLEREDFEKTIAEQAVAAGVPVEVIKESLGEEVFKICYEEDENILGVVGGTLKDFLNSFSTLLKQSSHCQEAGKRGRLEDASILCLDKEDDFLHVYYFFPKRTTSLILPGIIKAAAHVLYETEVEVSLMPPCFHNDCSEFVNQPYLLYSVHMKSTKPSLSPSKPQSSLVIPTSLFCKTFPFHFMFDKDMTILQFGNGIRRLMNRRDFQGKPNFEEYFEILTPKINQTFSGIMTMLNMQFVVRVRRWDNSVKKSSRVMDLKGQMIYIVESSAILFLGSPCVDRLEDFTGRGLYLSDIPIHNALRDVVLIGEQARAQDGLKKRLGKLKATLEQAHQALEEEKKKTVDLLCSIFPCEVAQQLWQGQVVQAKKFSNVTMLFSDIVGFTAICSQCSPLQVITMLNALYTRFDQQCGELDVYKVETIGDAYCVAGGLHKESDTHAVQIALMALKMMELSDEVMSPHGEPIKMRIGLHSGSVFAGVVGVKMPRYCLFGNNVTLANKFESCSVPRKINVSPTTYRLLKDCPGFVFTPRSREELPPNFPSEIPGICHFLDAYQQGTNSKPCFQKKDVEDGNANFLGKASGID
T1 sequence (Q02153 1-619): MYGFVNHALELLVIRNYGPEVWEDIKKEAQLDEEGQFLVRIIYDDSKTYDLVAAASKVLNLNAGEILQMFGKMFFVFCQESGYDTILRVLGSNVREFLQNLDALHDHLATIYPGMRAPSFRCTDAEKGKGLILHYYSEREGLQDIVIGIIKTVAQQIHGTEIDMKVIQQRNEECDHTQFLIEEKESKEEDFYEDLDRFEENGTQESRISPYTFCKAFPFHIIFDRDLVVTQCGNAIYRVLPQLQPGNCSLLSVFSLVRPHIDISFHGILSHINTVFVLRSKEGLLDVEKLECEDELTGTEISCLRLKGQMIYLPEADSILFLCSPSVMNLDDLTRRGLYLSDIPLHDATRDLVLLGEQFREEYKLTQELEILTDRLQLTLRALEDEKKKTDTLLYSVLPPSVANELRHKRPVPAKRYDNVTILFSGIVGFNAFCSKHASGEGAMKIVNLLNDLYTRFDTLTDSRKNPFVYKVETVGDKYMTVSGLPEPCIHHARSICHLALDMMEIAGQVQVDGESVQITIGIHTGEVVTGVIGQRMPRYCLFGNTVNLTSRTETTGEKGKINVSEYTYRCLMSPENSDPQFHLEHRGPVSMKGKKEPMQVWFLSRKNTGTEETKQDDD
How it was run: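 Stable CHO-K1/sGC cells in EBSS buffer with 5 mM MgCl2, 0.05% BSA and 0.5 mM IBMX were incubated with compound (2.5% DMSO final) ±1 μM DETA-NO for 1 hr at 37° C. cGMP was measured by HTRF. Activation is expressed as % of reference HDA Compound A maximum, with IP and max fold induction from a 4P fit.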

Compound | Maximum peak decrease of systolic blood pressure (SBP) in SHR, Cat. ([1]; P.O. 1.0 mpk) | Emax (sGC α1/β1 heterodimer) | EC50 (sGC α1/β1 heterodimer) | Maximum peak decrease of systolic blood pressure (SBP) in SHR, Cat. ([1]; P.O. 0.3 mpk) | % Act. (sGC α1/β1 heterodimer; percent activation relative to standard Compound A in CHO-K1/sGC cells) | Maximum peak decrease of systolic blood pressure (SBP) in SHR, Cat. ([1]; P.O. 3.0 mpk)
CC1(c2ccc(Cl)cc2)C(=O)Nc2nc(-c3cn4ccnc4cn3)nc(N)c21 (stereo not drawn) [Example 144A, 4-amino-5-(4-chlorophenyl)-2-(imidazo[1,2-a]pyrazin-6-yl)-5-methyl-5H-pyrrolo[2,3-d]pyrimidin-6(7H)-one] | B (Category B=SBP in SHRs 20-40 mmHg) | 117% | 400 nM | – | – | –
CC(C)CCc1nc(-c2nc(N)c3c(n2)NC(=O)C3(C)c2ccc(Cl)cc2)cn2ccnc12 (stereo not drawn) [Example 14A, 4-amino-5-(4-chlorophenyl)-2-(8-isopentylimidazo[1,2-a]pyrazin-6-yl)-5-methyl-5H-pyrrolo[2,3-d]pyrimidin-6(7H)-one] | C (Category C=SBP in SHRs>40 mmHg) | 113% | 111 nM | – | – | –
CC1(c2ccc(F)cc2)C(=O)Nc2nc(-c3cn4ccnc4c(CCC(F)(F)C(F)(F)F)n3)nc(N)c21 (single isomer, unassigned) [Example 68A, 4-Amino-5-(4-fluorophenyl)-5-methyl-2-(8-(3,3,4,4,4-pentafluorobutyl)imidazo[1,2-a]pyrazin-6-yl)-5H-pyrrolo[2,3-d]pyrimidin-6(7H)-one] | – | – | 37 nM | C (Category C=SBP in SHRs>40 mmHg) | 112% | –
Nc1nc(-c2cn3ccnc3c(CCC(F)(F)C(F)(F)F)n2)nc2c1C(c1ccc(F)cc1)(C1CC1)C(=O)N2 (stereo not drawn) [Example 233B, 4-amino-5-cyclopropyl-5-(4-fluorophenyl)-2-(8-(3,3,4,4,4-pentafluorobutyl)imidazo [1,2-a]pyrazin-6-yl)-5H-pyrrolo[2,3-d]pyrimidin-6(7H)-one] | – | 131% | 43 nM | B (Category B=SBP in SHRs 20-40 mmHg) | – | –
CCCc1nc(-c2nc(N)c3c(n2)NC(=O)C3(c2ccc(F)c(F)c2)C2CC2)cn2ccnc12 (stereo not drawn) [Example 334A, 4-amino-5-cyclopropyl-5-(3,4-difluorophenyl)-2-(8-propylimidazo[1,2-a]pyrazin-6-yl)-5H-pyrrolo[2,3-d]pyrimidin-6(7H)-one] | – | 111% | 278 nM | – | – | A (Category A=SBP in SHRs<20 mmHg)
CCC1(c2ccc(F)cn2)C(=O)Nc2nc(-c3cn4ccnc4c(CCC(F)(F)C(F)(F)F)n3)nc(N)c21 (stereo not drawn) [Example 249A, 4-amino-5-ethyl-5-(5-fluoropyridin-2-yl)-2-(8-(3,3,4,4,4-pentafluorobutyl)imidazo [1,2-a]pyrazin-6-yl)-5H-pyrrolo[2,3-d]pyrimidin-6(7H)-one] | – | 96% | 759 nM | – | – | B (Category B=SBP in SHRs 20-40 mmHg)
Nc1nc(-c2cn3ccnc3c(CCC(F)(F)F)n2)nc2c1C(c1ccc(OC(F)(F)F)cc1)(C1CC1)C(=O)N2 (stereo not drawn) [Example 328A, 4-amino-5-cyclopropyl-5-(4-(trifluoromethoxy)phenyl)-2-(8-(3,3,3-trifluoropropyl)imidazo[1,2-a]pyrazin-6-yl)-5H-pyrrolo[2,3-d]pyrimidin-6(7H)-one] | – | 106% | 1040 nM | – | – | A (Category A=SBP in SHRs<20 mmHg)
CC1(c2ccc(Cl)cn2)C(=O)Nc2nc(-c3cn4ccnc4c(CCC(F)(F)F)n3)nc(N)c21 (stereo not drawn) [Example 201A, 4-amino-5-(5-chloropyridin-2-yl)-5-methyl-2-(8-(3,3,3-trifluoropropyl)imidazo[1,2-a]pyrazin-6-yl)-5H-pyrrolo[2,3-d]pyrimidin-6(7H)-one] | – | 140% | 928 nM | – | – | C (Category C=SBP in SHRs>40 mmHg)
CC1(c2ccc(Cl)c(F)c2)C(=O)Nc2nc(-c3cn4ccnc4c(CCC(F)(F)F)n3)nc(N)c21 (stereo not drawn) [Example 178B, 4-amino-5-(4-chloro-3-fluorophenyl)-5-methyl-2-(8-(3,3,3-trifluoropropyl)imidazo[1,2-a]pyrazin-6-yl)-5H-pyrrolo[2,3-d]pyrimidin-6(7H)-one] | – | 106% | 17 nM | B (Category B=SBP in SHRs 20-40 mmHg) | – | –

Reference: US9796733B2, “Imidazo-pyrazine derivatives useful as soluble guanylate cyclase activators” (Merck Sharp & Dohme Corp., priority 2014, dated 2017)
